Patent publication US20240294478A1, “ANTI-CANCER COMPOUNDS AND METHODS OF USE” (YALE UNIVERSITY, priority 2021, published 2024)

Key:
[1] = system: BJ fibroblast cells (normal cells); assay: Short-term cell viability, normal fibroblasts; assay type: cell-based, human; settings: compared with TMZ
Description: FIG. 1B: Short-term viability assay curves for KL-50 in DLD1 MSH6-deficient cells pre-treated with 0.01% DMSO control (CTR) or 10 μM O^6BG (+O^6BG) for 1 h prior to KL-50 addition. […] Short-term viability assay curves for (FIG. 1E) KL-50 in HCT116 MLH1−/−cells or (FIG. 1F) HCT116 cells complemented with chromosome 3 carrying wildtype MLH1 (+Chr3) pre-treated with 0.01% DMSO control or 10 μM O^6BG (+O^6BG) for 1 h prior to KL-50 addition. […] For these figures, points, mean; error bars, SD; n>3 technical replicates.
Short-term Cell Viability Assay. Cells were seeded in 96-well plates at 1000 or 2000 cells/well and allowed to adhere at 23° C. for 60 min and then incubated overnight at 37° C. Cells were treated with indicated concentrations of compounds in triplicate for 4-6 days prior to fixation with 3.7% paraformaldehyde and nuclear staining with 1 μg/mL Hoechst 33342 dye. Cells were imaged on a Cytation 3 imaging reader (BioTek) and quantified using CellProfiler software. For in vitro short-term growth delay experiments, IC50 values were determined from the nonlinear regression equation, [inhibitor] vs normalized response with variable slope.

[2] = system: LN229 MGMT−/MMR+ and MGMT−/MMR− flank tumors; assay: Flank tumor second study: regimens, schedules, routes; assay type: in vivo, mouse; settings: 5, 15, 25 mg/kg; MWF x 3 weeks or M-F x 1 week; PO or IP
From the text: FIGS. 9A-91: KL-50 is safe and efficacious on both MGMT−/MMR+ and MGMT−/MMR-flank tumors over a wide range of treatment regimens and conditions. […] (FIG. 9C) Mean body weight of mice during LN229 flank tumor experiments. (FIG. 9D) Kaplan-Meier analysis of LN229 MGMT−/MMR− xenograft flank tumor-bearing mice to determine survival rate based on death, removal from study if mouse body weight loss exceeded 20% of initial body weight, or if tumor volume exceeded 2000 mm^3. […] (FIGS. 9H-91) Xenograft LN229 MGMT−/MMR+ and LN229 MGMT−/MSH6—flank tumors with a larger average starting tumor size of −400 mm^3 and −350 mm^3 respectively, treated with 3 weekly cycles of P.O administration of 10% cyclodextrin (n=4) or KL-50 (n=4, 3 cycles of 25 mg/kg on Monday, Wednesday, and Friday). The study period was limited by control groups which had to be euthanized for exceeding the ethical maximum allowed tumor size, thus ending the study. In all panels, points, mean; error bars, SEM; *, P<0.05; **, P<0.01; ***, P<0.001; ****, P<0.0001; ns, not significant.
In a second study, mice were randomized and administered either KL-50 or vehicle (10% cyclodextrin) by oral gavage or intraperitoneal injection on either M-F x 1 or MWF×3 cycles at 5, 15, or 25 mgs/kg. Caliper measurements were obtained during the dosing period and at least two weeks following treatment. […]

NC(=O)c1ncn2c(=O)n(CCF)nnc12 [KL-50]
cytotoxicity in normal human fibroblast cells [1]: No increase in toxicity
efficacy and toxicity across regimens [2]: effective and non-toxic
